Consider twelve molecules from ChEMBL document CHEMBL1136896, “Synthesis and biological evaluation of arylhydrazinocyanoacrylates and N-aryl pyrazolecarboxylates” (2009).

Holding throughout (format): functional
The subject of one experiment is Cladosporium cucumerinum. Kind of experiment: Fungicidal activity against Cladosporium cucumerinum assessed as inhibition of mycelium growth at 50 mg/L after 72 hrs.
The test system of a further experiment is Fusarium graminearum. Kind of experiment: Fungicidal activity against Gibberella zeae assessed as inhibition of mycelium growth at 50 mg/L after 72 hrs.
Experiment [1] has as its system Brassica napus. Kind of experiment: Herbicidal activity against Brassica napus L. at 1.5 kg/hectare administered preemergence of first true leaf measured after 10 days. To be noted: pre-emergence, 240 h.
The subject of experiment [2] is Brassica napus. Kind of experiment: Herbicidal activity against Brassica napus at 1.5 kg/hectare administered postemergence of first true leaf measured after 10 days. To be noted: post-emergence, 240 h.
Experiment [3] has as its system Medicago sativa. Description: Herbicidal activity against Medicago sativa at 1.5 kg/hectare administered postemergence of first true leaf measured after 10 days. To be noted: post-emergence, 240 h.
Experiment [4] has as its system Digitaria sanguinalis. Kind of experiment: Herbicidal activity against Digitaria sanguinalis at 1.5 kg/hectare administered postemergence of first true leaf measured after 10 days. To be noted: post-emergence, 240 h.
Experiment [5] concerns Amaranthus retroflexus. Kind of experiment: Herbicidal activity against Amaranthus retroflexus at 1.5 kg/hectare administered preemergence of first true leaf measured after 10 days. To be noted: pre-emergence, 240 h.
The subject of another experiment is Cucumis sativus. Description: Growth regulatory activity in cucumber assessed as root growth at 10 mg/L incubated in dark for 5 days.
The next experiment concerns Mycosphaerella arachidis. Description: Fungicidal activity against Cercospora arachidicola assessed as inhibition of mycelium growth at 50 mg/L after 72 hrs.
Experiment [6] deals with Botryosphaeria berengeriana. Kind of experiment: Fungicidal activity against Physalospora pyricola assessed as inhibition of mycelium growth at 50 mg/L after 72 hrs.
Experiment [7] deals with Medicago sativa. Description: Herbicidal activity against Medicago sativa at 1.5 kg/hectare administered preemergence of first true leaf measured after 10 days. To be noted: pre-emergence, 240 h.
Experiment [8] deals with Amaranthus retroflexus. Kind of experiment: Herbicidal activity against Amaranthus retroflexus at 1.5 kg/hectare administered postemergence of first true leaf measured after 10 days. To be noted: post-emergence, 240 h.
A further experiment concerns Alternaria solani. Kind of experiment: Fungicidal activity against Alternaria solani assessed as inhibition of mycelium growth at 50 mg/L after 72 hrs.
Experiment [9] concerns Digitaria sanguinalis. Description: Herbicidal activity against Digitaria sanguinalis (L.) Scop. at 1.5 kg/hectare administered preemergence of first true leaf measured after 10 days. To be noted: pre-emergence, 240 h.
Experiment [10] has as its system Bel-7402. Kind of experiment: Antitumor activity against human Bel7402 cells at 100 uM/L after 72 hrs by MTT assay. To be noted: Bel-7402, 72 h. In general terms: Tetrazolium dyes change colour on reduction, which living cells bring about.
Experiment [11] deals with HL-60. Description: Antitumor activity against human HL60 cells at 1000 uM/L after 72 hrs by MTT assay. To be noted: HL-60, 72 h.
Experiment [12] has as its system HL-60. Kind of experiment: Antitumor activity against human HL60 cells at 100 uM/L after 72 hrs by MTT assay. To be noted: HL-60, 72 h.
Experiment [13] concerns Bel-7402. Kind of experiment: Antitumor activity against human Bel7402 cells at 1 uM/L after 72 hrs by MTT assay. To be noted: Bel-7402, 72 h.
Experiment [14] deals with HL-60. Kind of experiment: Antitumor activity against human HL60 cells at 1 uM/L after 72 hrs by MTT assay. To be noted: HL-60, 72 h.
In experiment [15] the test system is Bel-7402. Kind of experiment: Antitumor activity against human Bel7402 cells at 10 uM/L after 72 hrs by MTT assay. To be noted: Bel-7402, 72 h.
Experiment [16] deals with Bel-7402. Description: Antitumor activity against human Bel7402 cells at 1000 uM/L after 72 hrs by MTT assay. To be noted: Bel-7402, 72 h.
The test system of experiment [17] is HL-60. Description: Antitumor activity against human HL60 cells at 10 uM/L after 72 hrs by MTT assay. To be noted: HL-60, 72 h.

Some results are limits rather than exact numbers.

For the molecule `CCOCCOC(=O)c1c(CC)nn(-c2ccccc2)c1N`, the inhibition (as a rule, the share of the control response that was lost under treatment) at 50 µg/mL in the experiment on Cladosporium cucumerinum is 18.2%; in the experiment on Fusarium graminearum, 46.7%; in the experiment on Mycosphaerella arachidis it was 35.3%; in [6] it was 1.3%; in the experiment with Alternaria solani it was 20%. Further, the inhibition at 1500 g/ha with Brassica napus [1] stood at 0%; in the experiment with Brassica napus [2], 61.5%; with Medicago sativa [3], 0%; in the experiment on Digitaria sanguinalis [4], 0%; in the experiment with Amaranthus retroflexus [5] it was 0%; with Medicago sativa [7] it was 0%. Besides, the inhibition at 1500 g/ha with Amaranthus retroflexus [8] and in the experiment with Digitaria sanguinalis [9] was 0% throughout. Further, in the experiment with Cucumis sativus, the Activity is reported as 46.3%.
Regarding `CCOCCOC(=O)/C(C#N)=C(/CC)NNc1c(Cl)cccc1Cl`, the inhibition at 50 µg/mL in the experiment with Cladosporium cucumerinum turned out to be 0%; with Fusarium graminearum, 0%; in the experiment on Mycosphaerella arachidis it was 24.4%; in experiment [6], 24%; in the experiment with Alternaria solani it was 10%. Also, the inhibition at 1500 g/ha with Brassica napus [1] is 5.3%; in the experiment on Brassica napus [2], 11.1%; with Medicago sativa [3], 2.3%; with Digitaria sanguinalis [4], 0%; in the experiment on Amaranthus retroflexus [5] it was 8.8%; in the experiment with Medicago sativa [7], 0%. The inhibition at 1500 g/ha with Amaranthus retroflexus [8] is 22.7%; in the experiment with Digitaria sanguinalis [9], 0%. The inhibition at 100 µM is 54.6% in the experiment on Bel-7402 [10] and 72.4% with HL-60 [12]. The results for the inhibition at 1000 µM in the experiment on HL-60 [11] and in the experiment on Bel-7402 [16] were 80.4% and 79.8%, respectively. In the experiment with Cucumis sativus, the Activity is -6%. Also, the inhibition at 1 µM worked out at 11.5% with Bel-7402 [13] and 4.3% with HL-60 [14]. Further, the inhibition at 10 µM came out at 17.1% in the experiment on Bel-7402 [15] and 35.9% in the experiment with HL-60 [17].
On to `CCOCCOC(=O)/C(C#N)=C(/CC)NNc1cc(Cl)c(Cl)cc1Cl`, for which the inhibition at 50 µg/mL worked out at 13.9% in the experiment on Cladosporium cucumerinum; 9.6% with Fusarium graminearum; 21.3% in the experiment on Mycosphaerella arachidis; 36% in [6]; 10% in the experiment with Alternaria solani. Further, the inhibition at 1500 g/ha in the experiment with Brassica napus [1] came out at 0%; with Brassica napus [2], 0%; in the experiment with Medicago sativa [3] it was 4.7%; in the experiment on Digitaria sanguinalis [4], 0%; in the experiment with Amaranthus retroflexus [5], 5.9%; in the experiment on Medicago sativa [7], 0%. For the same molecule, the inhibition at 1500 g/ha is 15.6% with Amaranthus retroflexus [8] and 3.8% with Digitaria sanguinalis [9]. Further, the figures for the inhibition at 100 µM in the experiment with Bel-7402 [10] and in the experiment with HL-60 [12] were 0% and 7.3%, respectively. The inhibition at 1000 µM was found to be 80.4% in the experiment on HL-60 [11] and 94.5% in the experiment on Bel-7402 [16]. Also, the Activity in the experiment with Cucumis sativus is -39%. Besides, the inhibition at 1 µM with Bel-7402 [13] stood at 0%; in the experiment with HL-60 [14], 8.3%. Also, the inhibition at 10 µM in the experiment with Bel-7402 [15] is 0%; with HL-60 [17], 11.8%.
As to `CCOCCOC(=O)/C(C#N)=C(\NCc1ccc(Cl)nc1)SC`, the inhibition at 1500 g/ha with Brassica napus [1] stood at 47.6%; with Brassica napus [2], 100%; with Medicago sativa [3], 55.3%; in the experiment on Digitaria sanguinalis [4], 54.1%; in the experiment with Amaranthus retroflexus [5] it was 32.4%; in the experiment on Medicago sativa [7] it was 3.6%. Moreover, the inhibition at 1500 g/ha came out at 100% with Amaranthus retroflexus [8] and 18.8% in the experiment with Digitaria sanguinalis [9].
As for `CCOCCOC(=O)c1c(SC)nn(-c2ccc(Cl)cc2)c1N`, the inhibition at 50 µg/mL in the experiment on Cladosporium cucumerinum amounted to 23.6%; in the experiment on Fusarium graminearum it was 37.8%; with Mycosphaerella arachidis, 26.5%; in [6], 36%; with Alternaria solani, 20%. Besides, the inhibition at 1500 g/ha with Brassica napus [1], in the experiment on Brassica napus [2], with Medicago sativa [3], in the experiment with Digitaria sanguinalis [4], with Amaranthus retroflexus [5] and in the experiment on Medicago sativa [7] was 0% throughout. In addition, the inhibition at 1500 g/ha with Amaranthus retroflexus [8] and in the experiment on Digitaria sanguinalis [9] was 0% in each case. In addition, in the experiment with Cucumis sativus, the Activity came to 66.6%.
Consider `CC1COC(Cn2cncn2)(c2ccc(Oc3ccc(Cl)cc3)cc2Cl)O1` (stereo unspecified) [DIFENOCONAZOLE], for which the inhibition at 50 µg/mL (with Cladosporium cucumerinum; in the experiment on Fusarium graminearum; in the experiment on Mycosphaerella arachidis; in experiment [6]; in the experiment on Alternaria solani) was 100% in each case.
As to `O=C(O)Cc1c[nH]c2ccccc12` [INDOLE-3-ACETIC ACID], the Activity in the experiment with Cucumis sativus is listed as over 150%.
As for `CCOCCOC(=O)c1c(CC)nn(-c2ccc(Cl)cc2)c1N`, the inhibition at 50 µg/mL worked out at 14.5% with Cladosporium cucumerinum; 53.3% with Fusarium graminearum; 41.2% with Mycosphaerella arachidis; 38.7% in [6]; 0% in the experiment on Alternaria solani. The inhibition at 1500 g/ha in the experiment on Brassica napus [1], in the experiment with Brassica napus [2], with Medicago sativa [3], in the experiment with Digitaria sanguinalis [4], in the experiment with Amaranthus retroflexus [5] and in the experiment on Medicago sativa [7] was 0% each time. For the same molecule, the inhibition at 1500 g/ha in the experiment with Amaranthus retroflexus [8] and in the experiment with Digitaria sanguinalis [9] was 0% in each case. Besides, the Activity in the experiment on Cucumis sativus was found to be 111.3%.
On to `CCOCCOC(=O)c1c(C(C)C)nn(-c2ccc(C)cc2)c1N`, for which the inhibition at 50 µg/mL with Cladosporium cucumerinum stood at 40%; in the experiment with Fusarium graminearum, 51.1%; in the experiment with Mycosphaerella arachidis, 20.6%; in experiment [6], 13.3%; in the experiment on Alternaria solani, 12%. In addition, the inhibition at 1500 g/ha was determined as 15% with Brassica napus [1]; 40.7% in the experiment on Brassica napus [2]; 20% in the experiment on Medicago sativa [3]; 0% in the experiment with Digitaria sanguinalis [4]; 0% with Amaranthus retroflexus [5]; 0% with Medicago sativa [7]. Further, the inhibition at 1500 g/ha with Amaranthus retroflexus [8] and in the experiment on Digitaria sanguinalis [9] was 0% in each case. Further, the Activity in the experiment on Cucumis sativus is on record as 21.9%.
Consider `CCOCCOC(=O)c1c(SC)nn(-c2ccc(C)cc2)c1N`, for which the inhibition at 50 µg/mL in the experiment with Cladosporium cucumerinum turned out to be 20%; with Fusarium graminearum it was 46.7%; in the experiment on Mycosphaerella arachidis it was 35.3%; in experiment [6] it was 22.7%; in the experiment with Alternaria solani it was 28%. Also, the inhibition at 1500 g/ha in the experiment on Brassica napus [1] amounted to 10%; in the experiment on Brassica napus [2], 52.7%; in the experiment on Medicago sativa [3], 0%; with Digitaria sanguinalis [4], 0%; in the experiment on Amaranthus retroflexus [5], 0%; in the experiment on Medicago sativa [7], 0%. Also, the inhibition at 1500 g/ha with Amaranthus retroflexus [8] was determined as 38%; in the experiment on Digitaria sanguinalis [9] it was 0%. The Activity in the experiment with Cucumis sativus was determined as 66.6%.
On to `CCOCCOC(=O)c1c(C(C)C)nn(-c2ccccc2)c1N`, for which the inhibition at 50 µg/mL in the experiment on Cladosporium cucumerinum turned out to be 1.8%; in the experiment on Fusarium graminearum it was 46.7%; in the experiment with Mycosphaerella arachidis it was 20.6%; in experiment [6] it was 32%; in the experiment on Alternaria solani it was 32%. The inhibition at 1500 g/ha is 15% in the experiment on Brassica napus [1]; 58.8% in the experiment on Brassica napus [2]; 0% in the experiment on Medicago sativa [3]; 0% in the experiment on Digitaria sanguinalis [4]; 0% with Amaranthus retroflexus [5]; 0% in the experiment with Medicago sativa [7]. The inhibition at 1500 g/ha with Amaranthus retroflexus [8] and in the experiment on Digitaria sanguinalis [9] was 0% throughout. For the same molecule, the Activity in the experiment on Cucumis sativus amounted to 46.3%.
`CCOCCOC(=O)c1c(C(C)C)nn(-c2ccc(Cl)cc2)c1N`: the inhibition at 50 µg/mL amounted to 23.6% in the experiment with Cladosporium cucumerinum; 44.4% with Fusarium graminearum; 23.5% in the experiment on Mycosphaerella arachidis; 33.3% in experiment [6]; 0% in the experiment on Alternaria solani. The inhibition at 1500 g/ha in the experiment with Brassica napus [1] was 40%; in the experiment with Brassica napus [2], 26.4%; in the experiment with Medicago sativa [3], 0%; with Digitaria sanguinalis [4], 0%; with Amaranthus retroflexus [5], 0%; with Medicago sativa [7] it was 0%. For the same molecule, the inhibition at 1500 g/ha in the experiment with Amaranthus retroflexus [8] and with Digitaria sanguinalis [9] was 0% each time. The Activity in the experiment on Cucumis sativus is 38.2%.
